Results taken from US8629168B2, “Benzoxazoles and oxazolopyridines being useful as janus kinases inhibitors” (priority 2006, dated 2014).

Biological target: T1, GST-JAK2(808-1132) (Homo sapiens, UniProt O60674)
T1 construct: GST-JAK2(808-1132) is purchased from Invitrogen; purchased Invitrogen (Carlsbad, USA) #4288
Assay: EPK JAK/TYK-kinase family profiling assay (Caliper mobility shift), JAK2
Type: biochemical
Details: Caliper mobility shift assay of Example 187, 20 μM ATP, read-out: IC50 with Test in present Example
Excerpt: All four kinases of the JAK/TYK-kinase family are used as purified recombinant GST-fusion proteins, containing the active kinase domains. GST-JAK1(866-1154), GST-JAK3(811-1124), and GST-TYK2(888-1187) are expressed and purified by affinity chromatography. GST-JAK2(808-1132) is purchased from Invitrogen (Carlsbad, USA, #4288).
The kinase assays are based on the Caliper mobility shift assay using the LabChip 3000 systems. This technology is similar to capillary electrophoresis and uses charge driven separation of substrate and product in a microfluidic chip.
All kinase reactions are performed in 384 well microtiter plates in a total reaction volume of 18 μl. The assay plates are prepared with 0.1 μl per well of test compound in the appropriate test concentration, as described under the section “preparation of compound dilutions”. The reactions are started by combining 9 μl of substrate mix (consisting of peptide and ATP) with 9 μl of kinase dilution. The reactions are incubated for 60 minutes at 30° C. and stopped by adding 70 μl of stop buffer (100 mM Hepes, 5% DMSO, 0.1% Coating reagent, 10 mM EDTA, 0.015% Brij 35).
Fluorescently labeled synthetic peptides are used as substrates in all reactions. […] Specific assay conditions are described in Table 1:
The terminated reactions are transferred to a Caliper LabChip 3000 reader (Caliper Life Sciences, Mountain View, Calif., USA) and the turnover of each reaction is measured by determining the substrate/product ratio.
Test compounds are dissolved in DMSO (10 mM) and transferred into 1.4 mL flat bottom or V-shaped Matrix tubes carrying a unique 2D matrix chip by individual compound hubs. The numbers of these chips are distinctively linked to the individual compound identification numbers. The stock solutions are stored at −20° C. if not used immediately. For the test procedure the vials are defrosted and identified by a scanner whereby a working sheet is generated that guides the subsequent working steps.
Compound dilutions are made in 96 well plates. This format enabled the assay of maximally 40 individual test compounds at 8 concentrations (single points) including 4 reference compounds. The dilution protocol includes the production of pre-dilution plates, master plates and assay plates:
Pre-dilution plates: 96 polypropylene well plates are used as pre-dilution plates. A total of 4 pre-dilution plates are prepared including 10 test compounds each on the plate positions A1-A10, one standard compound at A11 and one DMSO control at A12. All dilution steps are done on a Hamilton STAR robot (Hamilton, Co., Reno, Nev., USA).
Master plates: 100 μL of individual compound dilutions including standard compound and controls of the 4 “pre-dilution plates” are transferred into a 384 “master plate” including the following concentrations 1,820, […], 182, 54.6, 18.2, 5.46, 1.82 and 0.546 μM, respectively in 90% of DMSO.
Assay plates: Identical assay plates are then prepared by pipetting 100 nL each of compound dilutions of the master plates into 384-well “assay plates”. In the following the compounds are mixed with 9 μL of assays components plus 9 μL enzyme corresponding to a 1:181 dilution steps enabling the final concentration of 10, 3.0, 1.0, 0.3, 0.1, 0.03, 0.01 and 0.003 μM, respectively. The preparation of the master plates are handled by the Matrix PlateMate Plus robot (Thermo Fisher Scientific, Handforth, Cheshire, United Kingdom) and replication of assay plates by the HummingBird robot (Genomic Solutions, Inc., Ann Arbor, Mich., USA).

T1 sequence (O60674 808-1132): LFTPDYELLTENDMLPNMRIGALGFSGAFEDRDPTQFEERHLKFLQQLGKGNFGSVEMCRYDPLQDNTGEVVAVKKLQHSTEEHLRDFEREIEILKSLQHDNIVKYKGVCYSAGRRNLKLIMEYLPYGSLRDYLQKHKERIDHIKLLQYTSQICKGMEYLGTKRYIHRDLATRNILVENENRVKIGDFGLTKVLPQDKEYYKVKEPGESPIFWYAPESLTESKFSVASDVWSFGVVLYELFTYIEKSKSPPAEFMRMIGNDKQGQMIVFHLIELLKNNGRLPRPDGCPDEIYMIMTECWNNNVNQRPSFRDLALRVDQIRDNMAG

Row | Structure (SMILES) | IC50 [nM]
1 | Cc1cc(Nc2nc3cccc(-c4ccc(CN5CCOCC5)c(F)c4)c3o2)ccc1C(=O)N(C)C [Example 64, 4-[7-(3-Fluoro-4-morpholin-4-ylmethyl-phenyl)-benzooxazol-2-ylamino]-2,N,N-trimethyl-benzamide] | 4.2
2 | Cc1cc(Nc2nc3cccc(-c4cc(F)c(CN5CCS(=O)(=O)CC5)c(F)c4)c3o2)ccc1C(=O)N(C)C [Example 65, 4-{7-[4-(1,1-Dioxo-thiomorpholin-4-ylmethyl)-3,5-difluoro-phenyl]-benzooxazol-2-ylamino}-2,N,N-trimethyl-benzamide] | 8.25
3 | COCCN1CCN(c2ccc(Nc3nc4cccc(-c5ccc(C(=O)N6CCOCC6)c(C)c5)c4o3)cc2C)CC1 [Example 66, [4-(2-{4-[4-(2-Methoxy-ethyl)-piperazin-1-yl]-3-methyl-phenylamino}-benzooxazol-7-yl)-2-methyl-phenyl]-morpholin-4-yl-methanone] | 6.45
4 | Cc1cc(Nc2nc3cccc(-c4ccc(CN5CCOCC5)c(F)c4)c3o2)ccc1C(=O)N1CCCC1 [Example 67, {4-[7-(3-Fluoro-4-morpholin-4-ylmethyl-phenyl)-benzooxazol-2-ylamino]-2-methyl-phenyl}-pyrrolidin-1-yl-methanone] | 14
5 | Cc1cc(Nc2nc3cccc(-c4cc(F)c(CN5CCOCC5)c(F)c4)c3o2)ccc1C(=O)N(C)C [Example 68, 4-[7-(3,5-Difluoro-4-morpholin-4-ylmethyl-phenyl)-benzooxazol-2-ylamino]-2,N,N-trimethyl-benzamide] | 19
6 | Cc1cc(Nc2nc3cccc(-c4ccc(C(=O)N5CCOCC5)cc4)c3o2)ccc1C(=O)N(C)C [Example 69, 2,N,N-Trimethyl-4-{7-[4-(morpholine-4-carbonyl)-phenyl]-benzooxazol-2-ylamino}-benzamide] | 7.9
7 | Cc1cc(Nc2nc3cccc(-c4ccc(CC(=O)N5CCOCC5)cc4)c3o2)ccc1C(=O)N(C)C [Example 70, 2,N,N-Trimethyl-4-{7-[4-(2-morpholin-4-yl-2-oxo-ethyl)-phenyl]-benzooxazol-2-ylamino}-benzamide] | 6.2
8 | CN(C)C(=O)c1ccc(Nc2nc3cccc(-c4ccc(CS(C)(=O)=O)cc4)c3o2)cc1 [Example 71, 4-[7-(4-Methanesulfonylmethyl-phenyl)-benzooxazol-2-ylamino]-N,N-dimethyl-benzamide] | 15
9 | Cc1cc(Nc2nc3cccc(-c4ccc(CC(=O)N5CCOCC5)cc4)c3o2)ccc1C(=O)N1CCN(C)CC1 [Example 72, 2-(4-{2-[3-Methyl-4-(4-methyl-piperazine-1-carbonyl)-phenylamino]-benzooxazol-7-yl}-phenyl)-1-morpholin-4-yl-ethanone] | 17
10 | Cc1cc(Nc2nc3cccc(-c4ccc(CC(=O)N5CCOCC5)c(F)c4)c3o2)ccc1C(=O)N1CCN(C)CC1 [Example 73, 2-(2-Fluoro-4-{2-[3-methyl-4-(4-methyl-piperazine-1-carbonyl)-phenylamino]-benzooxazol-7-yl}-phenyl)-1-morpholin-4-yl-ethanone] | 5.15
11 | CN1CCN(c2ccc(Nc3nc4cccc(-c5ccc(CC(=O)N6CCOCC6)cc5)c4o3)cc2)CC1 [Example 74, 2-(4-{2-[4-(4-Methyl-piperazin-1-yl)-phenylamino]-benzooxazol-7-yl}-phenyl)-1-morpholin-4-yl-ethanone] | 5
12 | CN1CCN(c2ccc(Nc3nc4cccc(-c5ccc(C(=O)N6CCOCC6)c(F)c5)c4o3)cc2)CC1 [Example 75, (2-Fluoro-4-{2-[4-(4-methyl-piperazin-1-yl)-phenylamino]-benzooxazol-7-yl}-phenyl)-morpholin-4-yl-methanone] | 6.5
13 | Cc1cc(Nc2nc3cccc(-c4ccc(C(=O)N5CCOCC5)cc4F)c3o2)ccc1C(=O)N(C)C [Example 76, 4-{7-[2-Fluoro-4-(morpholine-4-carbonyl)-phenyl]-benzooxazol-2-ylamino}-2,N,N-trimethyl-benzamide] | 13

The remaining lines, values ahead:

Row | IC50 [nM] | Structure (SMILES)
14 | 3.3 | Cc1cc(Nc2nc3cccc(-c4ccc(CC(=O)N5CCS(=O)(=O)CC5)cc4)c3o2)ccc1C(=O)N(C)C [Example 77, 4-(7-{4-[2-(1,1-Dioxo-1lambda*6*-thiomorpholin-4-yl)-2-oxo-ethyl]-phenyl}-benzooxazol-2-ylamino)-2, N,N-trimethyl-benzamide]
15 | 4.5 | Cc1cc(Nc2nc3cccc(-c4ccc(C(=O)N5CCOCC5)c(F)c4)c3o2)ccc1C(=O)N(C)C [Example 78, 4-{7-[3-Fluoro-4-(morpholine-4-carbonyl)-phenyl]-benzooxazol-2-ylamino}-2, N,N-trimethyl-benzamide]
16 | < 3 | Cc1cc(Nc2nc3cccc(-c4ccc(CN5CCS(=O)(=O)CC5)cc4)c3o2)ccc1C(=O)N(C)C [Example 79, 4-{7-[4-(1,1-Dioxo-1lambda*6*-thiomorpholin-4-ylmethyl)-phenyl]-benzooxazol-2-ylamino}-2,N,N-trimethyl-benzamide]
17 | 6.2 | CN1CCN(c2ccc(Nc3nc4cccc(-c5ccc(C(=O)N6CCS(=O)(=O)CC6)c(F)c5)c4o3)cc2)CC1 [Example 80, (1,1-Dioxo-1lambda*6*-thiomorpholin-4-yl)-(2-fluoro-4-{2-[4-(4-methyl-piperazin-1-yl)-phenylamino]-benzooxazol-7-yl}-phenyl)-methanone]
18 | 17 | Cc1cc(Nc2nc3cccc(-c4ccc(C[S+](C)[O-])cc4)c3o2)ccc1C(=O)N(C)C (stereo not shown) [Example 81, 4-[7-(4-Methanesulfinylmethyl-phenyl)-benzooxazol-2-ylamino]-2,N,N-trimethyl-benzamide]
19 | 4.8 | Cc1cc(-c2cccc3nc(Nc4ccc(N5CCN(C)CC5)cc4)oc23)ccc1C(=O)N1CCOCC1 [Example 82, (2-Methyl-4-{2-[4-(4-methyl-piperazin-1-yl)-phenylamino]-benzooxazol-7-yl}-phenyl)-morpholin-4-yl-methanone]
20 | < 3 | Cc1cc(Nc2nc3cccc(-c4ccc(CC(=O)N5CCS(=O)(=O)CC5)c(F)c4)c3o2)ccc1C(=O)N(C)C [Example 83, 4-(7-{4-[2-(1,1-Dioxo-1lambda*6*-thiomorpholin-4-yl)-2-oxo-ethyl]-3-fluoro-phenyl}-benzooxazol-2-ylamino)-2,N,N-trimethyl-benzamide]
21 | < 3 | Cc1cc(Nc2nc3cccc(-c4ccc(CN5CCS(=O)(=O)CC5)c(F)c4)c3o2)ccc1C(=O)N(C)C [Example 84, 4-{7-[4-(1,1-Dioxo-1lambda*6*-thiomorpholin-4-ylmethyl)-3-fluoro-phenyl]-benzooxazol-2-ylamino}-2,N,N-trimethyl-benzamide]
22 | 9.3 | Cc1cc(Nc2nc3cccc(-c4ccc(C(=O)N5CCOCC5)c(C)c4)c3o2)ccc1C(=O)N(C)C [Example 85, 2,N,N-Trimethyl-4-{7-[3-methyl-4-(morpholine-4-carbonyl)-phenyl]-benzooxazol-2-ylamino}-benzamide]
23 | 79 | Cc1cc(Nc2nc3cccc(-c4ccc(CN5CCOCC5)c(C(F)(F)F)c4)c3o2)ccc1C(=O)N(C)C [Example 86, 2,N,N-Trimethyl-4-[7-(4-morpholin-4-ylmethyl-3-trifluoromethyl-phenyl)-benzooxazol-2-ylamino]-benzamide]
24 | 4.8 | CCN1CCN(c2ccc(Nc3nc4cccc(-c5ccc(CN6CCOCC6)c(F)c5)c4o3)cc2C)CC1 [Example 87, [4-(4-Ethyl-piperazin-1-yl)-3-methyl-phenyl]-[7-(3-fluoro-4-morpholin-4-ylmethyl-phenyl)-benzooxazol-2-yl]-amine]
25 | < 3 | CCN1CCN(c2ccc(Nc3nc4cccc(-c5ccc(CN6CCS(=O)(=O)CC6)c(F)c5)c4o3)cc2C)CC1 [Example 88, {7-[4-(1,1-Dioxo-1lambda*6*-thiomorpholin-4-ylmethyl)-3-fluoro-phenyl]-benzooxazol-2-yl}-[4-(4-ethyl-piperazin-1-yl)-3-methyl-phenyl]-amine]
